From patent US9636345B2, “Benzimidazole derivatives useful TRPM8 channel modulators” (Janssen Pharmaceutica NV, priority 2009, dated 2017) come the findings set out here.

Where two headings read alike, the source gives them in different places.

One test concerns Male Sprague Dawley rats. Kind of test: Inhibition of icilin-induced "wet-dog" shakes in rats. The test is classed as in vivo. The following applies: rat; 10 mg/kg p.o.; 60 min pre-icilin; vehicle 0.5% HPMC. Here is the method:
Male Sprague Dawley rats ([…], Charles River Labs, n=6-9/treatment) were used to evaluate the ability of test compounds to block icilin-induced “wet-dog” shakes (WDS). The test compound was administered at 10 mg/kg in an appropriate vehicle, such as hydroxypropyl-β-cyclodextrin (HP-β-CD), methocellulose, 10% Solutol, H2O or the like, by the appropriate route (e.g., i.p or p.o), 30-60 min before icilin. Icilin was then administered in PEG-400 or 10% solutol/H2O, at 1.0 or 3.0 mg/kg, i.p. and spontaneous “wet-dog” shakes were counted 10-20 min post-icilin.
A representative compound of the present invention was tested at 10 mg/kg p.o. and 60 min pre-icilin, according to the procedure described above. Results, as listed in Table 8 below, are presented as a percent inhibition of shakes, which was calculated as [1−(test compound WDS count/vehicle WDS count)]×100.

The target in a further test is T1, canine TRPM8 (Canis lupus familiaris, UniProt Q1A7N1).
T1 construct: expressed in transfected cells
Kind of test: In vitro canine TRPM8 functional assay (icilin-induced intracellular Ca2+ increase, FLIPR/FDSS). The following applies: for inhibition at 0.2 µM / % Inh @ 0.2 μM: 0.2 μM compound, HEK293 canine TRPM8. Format: cell-based. As for the experimental part:
The functional activity of representative compounds of the formula (I) of the present invention was quantified by measuring changes in intracellular calcium concentration using a Ca^2+-sensitive fluorescent dye. The changes in fluorescent signal were monitored by a fluorescence plate reader, either a FLIPR™ (Molecular Devices) or FDSS (Hamamatsu).
HEK293 cells stably expressing canine TRPM8 were routinely grown as monolayers in Dulbecco's minimum essential medium supplemented with 10% FBS, 2 mM L-glutamine, 100 units/mL penicillin, 100 ug/mL streptomycin and 400 μg/mL G418. Cells were maintained in 5% CO2 at 37° C. At 24 hr prior to assay, cells were seeded in black wall, clear-base poly-D-lysine coated 384-well plates (BD Biosciences, N.J., USA) at a density of 5,000 cells per well in culture medium and grown overnight in 5% CO2 at 37° C. On assay day, growth media was removed, and cells were loaded with Calcium 3 Dye (Molecular Devices) for 35 min at 37° C., under 5% CO2 and then incubated for 25 min at room temperature and atmosphere. Subsequently, cells were tested for agonist-induced increases in intracellular Ca^2+ levels using FLIPR™ or FDSS. Cells were treated with compounds of the formula (I) at varying concentrations and intracellular Ca^2+ was measured for 5 min prior to the addition of icilin to all wells to achieve a final concentration that produces approximately an 80% maximal response.
Basal FI was subtracted prior to normalizing data to percent of maximal response. Curves were generated using the average of quadruplicate wells for each data point using nonlinear regression of either sigmoidal dose response or sigmoidal dose response (variable slope). Finally, the EC50 and IC50 values were calculated with the best-fit curve determined by GraphPad Prism
Test samples were prepared by diluting a 10 mM stock solution of test compound with 100% DMSO prior to addition to assay buffer.

T1 sequence (Q1A7N1 1-1104): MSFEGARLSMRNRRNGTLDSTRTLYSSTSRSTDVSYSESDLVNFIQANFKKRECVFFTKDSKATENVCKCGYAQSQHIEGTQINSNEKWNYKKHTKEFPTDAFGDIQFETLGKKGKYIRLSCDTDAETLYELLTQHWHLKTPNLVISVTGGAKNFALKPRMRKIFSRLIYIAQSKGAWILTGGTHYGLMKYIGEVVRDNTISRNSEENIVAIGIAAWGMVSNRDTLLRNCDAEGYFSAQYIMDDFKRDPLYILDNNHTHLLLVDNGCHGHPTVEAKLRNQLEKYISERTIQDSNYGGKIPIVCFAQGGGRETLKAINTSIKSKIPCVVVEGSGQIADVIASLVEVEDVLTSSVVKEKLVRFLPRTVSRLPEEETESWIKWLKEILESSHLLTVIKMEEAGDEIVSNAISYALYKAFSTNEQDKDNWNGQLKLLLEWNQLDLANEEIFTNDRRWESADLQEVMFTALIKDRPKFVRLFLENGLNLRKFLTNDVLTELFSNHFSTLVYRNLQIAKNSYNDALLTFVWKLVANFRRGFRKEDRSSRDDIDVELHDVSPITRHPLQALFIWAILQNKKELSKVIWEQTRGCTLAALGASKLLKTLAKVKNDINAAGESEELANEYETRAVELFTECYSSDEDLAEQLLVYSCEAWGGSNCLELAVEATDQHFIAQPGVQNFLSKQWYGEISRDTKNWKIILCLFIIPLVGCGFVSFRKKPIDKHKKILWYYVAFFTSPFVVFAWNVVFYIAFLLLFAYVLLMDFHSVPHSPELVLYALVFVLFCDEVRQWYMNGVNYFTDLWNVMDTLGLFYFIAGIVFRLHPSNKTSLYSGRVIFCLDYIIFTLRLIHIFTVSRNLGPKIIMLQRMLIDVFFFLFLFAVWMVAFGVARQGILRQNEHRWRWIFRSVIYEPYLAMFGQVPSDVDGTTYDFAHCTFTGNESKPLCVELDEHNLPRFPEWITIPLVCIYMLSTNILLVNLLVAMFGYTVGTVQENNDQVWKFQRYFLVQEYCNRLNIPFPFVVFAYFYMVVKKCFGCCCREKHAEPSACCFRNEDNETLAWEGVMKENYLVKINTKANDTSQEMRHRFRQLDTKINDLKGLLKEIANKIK

With `CCn1c(=NS(=O)(=O)c2ccccc2)n(Cc2ccc(C(F)(F)F)c(F)c2)c2cc(C(F)(F)F)ccc21` [Compound 37], the “% Inhibition of icilin-induced "wet-dog" shakes” value in the test with Male Sprague Dawley rats is reported as 0.6%. The same molecule came in with an IC50 against canine TRPM8 of 5 nM. Besides, the inhibition at 0.2 µM at canine TRPM8 (Table 6) is 93%.

Turning to `CCn1c(=NS(=O)(=O)c2ccccc2)n(Cc2ccc(C(F)(F)F)cc2)c2ccccc21` [Compound 15], the “% Inh @ 0.2 μM” value on canine TRPM8 (Table 6) is on record as 85%. Further, at canine TRPM8 (HEK293 cells stably expressing canine TRPM8, icilin at ~80% maximal response, Table 6, read-out: IC50), the IC50 stood at 69 nM.

Take `O=S(=O)(N=c1n(Cc2ccc(C(F)(F)F)cc2)c2cccc3c2n1CCC3)c1ccccc1` [Compound 53]: the “% Inh @ 0.2 μM” value at canine TRPM8 (Table 6) is listed as 16%.

In the case of `Cn1c(=NS(=O)(=O)c2ccccc2)n(Cc2cc(C(F)(F)F)ccc2F)c2ccccc21` [Compound 9], the “% Inh @ 0.2 μM” value on canine TRPM8 (Table 6) is reported as 39%.

As for `CCn1c(=NS(=O)(=O)c2ccccc2)n(Cc2ccc(OC(F)(F)F)cc2)c2cc(F)ccc21` [Compound 36], on canine TRPM8 (Table 6), the “% Inh @ 0.2 μM” value came to 36%.

The molecule `Cn1c(=NS(=O)(=O)c2ccc(F)cc2)n(Cc2ccc(OC(F)(F)F)cc2)c2ccccc21` [Compound 17] had an inhibition at 0.2 µM against canine TRPM8 (Table 6) of 6%. This molecule registered an inhibition at 1 µM against canine TRPM8 (1 μM compound, re-test, samples diluted from 10 mM stock with 100% DMSO, Table 7) of 60%. For the same molecule, the IC50 at canine TRPM8 (re-test, samples diluted from 10 mM stock with 100% DMSO before addition to assay buffer, Table 7, read-out: IC50) was found to be 606 nM.

In general, IC50 refers to the concentration at which inhibition is half-maximal. As a reminder, the inhibition is the drop in the measured response relative to a control, in per cent. The low end stands for a response near the control, the high end for a response far below the control.
